Data as given in US20040171086A1, “Selective modulation of TLR-mediated biological activity” (3M Innovative Properties Company, priority 2003, published 2004).

How the values were obtained:
TLR6 = molecular target: T1, TLR6 (Homo sapiens, UniProt Q9Y2C9); assay: IFN-α1-luciferase reporter assay in genetically modified Namalwa cells, TLR6; assay type: cell-based; details: 10 μM IRM, 18 hours
T1 construct: expressed in transfected cells; host or cells: Namalwa (ATCC CRL-1432), pCI-TLR6 vector, G418 selected
T1 sequence (Q9Y2C9 32-796): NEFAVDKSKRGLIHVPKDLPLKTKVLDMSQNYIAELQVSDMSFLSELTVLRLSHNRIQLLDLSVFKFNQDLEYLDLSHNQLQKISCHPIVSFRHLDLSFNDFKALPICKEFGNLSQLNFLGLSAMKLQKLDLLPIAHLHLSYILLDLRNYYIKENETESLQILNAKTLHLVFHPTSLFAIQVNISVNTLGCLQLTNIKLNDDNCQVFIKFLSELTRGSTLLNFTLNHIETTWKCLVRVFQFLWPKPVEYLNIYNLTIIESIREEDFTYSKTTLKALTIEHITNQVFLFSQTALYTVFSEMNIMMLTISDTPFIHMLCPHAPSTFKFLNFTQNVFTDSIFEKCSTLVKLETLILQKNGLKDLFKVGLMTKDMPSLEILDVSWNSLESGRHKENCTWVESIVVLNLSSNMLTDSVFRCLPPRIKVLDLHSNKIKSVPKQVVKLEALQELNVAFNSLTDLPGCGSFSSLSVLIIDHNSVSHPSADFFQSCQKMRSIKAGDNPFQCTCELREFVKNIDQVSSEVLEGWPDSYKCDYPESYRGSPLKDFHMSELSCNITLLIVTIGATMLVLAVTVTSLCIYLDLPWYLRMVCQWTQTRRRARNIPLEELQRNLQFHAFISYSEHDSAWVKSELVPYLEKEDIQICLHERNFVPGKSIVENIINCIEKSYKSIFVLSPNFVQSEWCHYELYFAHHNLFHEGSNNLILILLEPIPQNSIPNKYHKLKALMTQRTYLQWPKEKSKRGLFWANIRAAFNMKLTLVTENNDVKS
Description: (§1) Results are shown in Table 6 and are expressed as fold induction of IFN-α1 —induced luciferase signal, again with respect to a vehicle control.
(§2) The assay identified TLR6-selective compounds (i.e., compounds that modulate TLR6-mediated activity, but not TLR7-mediated activity), TLR7-selective compounds (compounds that modulate TLR7-mediated activity, but not TLR6-mediated activity), and compounds that modulate cellular activity through both TLR6 and TLR7.
(§3) Unless otherwise indicated, all incubations were performed at 37° C. with 5% CO2 at 98% humidity.
(§4) Culture medium was prepared from complete RPMI 1640 medium (BioSource International, Inc., Camarillo, Calif.). Fetal bovine serum (Atlas Biologicals, Inc., Ft. Collins, Colo.) was added to a final concentration of 7.5% (vol/vol); L-glutamine (BioSource International, Inc.) was added to 5 mM; and sodium pyruvate (BioSource International, Inc.) was added to 1 mM.
Namalwa cells were grown by incubation in culture medium overnight. Cells were harvested by centrifugation in a tabletop centrifuge (1200 RPM for 5 minutes), and then resuspended in phosphate buffered sucrose to a concentration of 1.3×10^7 cells/mL.
For each transfection, a 750 μL aliquot of the cell suspension was placed in an electroporation cuvette with 4 mm gaps. 10 μg of the pIFN-α1-luc vector and 10 μg of the pCI-TLR6 vector were added to the electroporation cuvette. The cell and vector mixtures were incubated at room temperature for 5 minutes. The cells were electroporated using a BioRad Gene Pulser (BioRad Laboratories, Hercules, Calif.) set to at 500 μF capacitance and […], then incubated at room temperature for 5 minutes.
(§5) The electroporated cells were suspended in 10 mLs of culture medium and incubated overnight. Dead cells and debris were removed after 24 hours using a MACS Dead Cell Removal kit (Miltenyi Biotec, Auburn, Calif.). Cells were resuspended in 10 mL of culture medium and incubated for an additional 24 hours.
(§6) Transfected cells were selected by adding G418 (Promega Corp., Madison, Wis.) to a final concentration of 1 mg/mL and incubating the cells for seven days.
(§7) The selected transfected cells were counted and resuspended to a concentration of 1×10^6 cell per mL in culture medium. 100 μl aliquots of cells were placed in the wells of a white-walled, white-bottomed 96-well plate (Corning, Inc., Corning, N.Y.). 1.0 μL of an IRM compound from Table 1 (prepared at 1 mM in 100% DMSO) was added to some cell aliquots so that the final concentration of IRM compound was 10 μM. As a positive control, some cell aliquots were incubated with Sendai virus instead of IRM compound. As a negative control, some cell aliquots were incubated with DMSO without IRM compound. In all cases, the cells were incubated for 18 hours.
(§8) The plates were equilibrated to room temperature before one volume of reconstituted LucLight Plus (Packard Instruments, Meriden, Conn.) was added to each aliquot of cells. Each well of the plate was read on an LJL Analyst (LJL Biosystems, Inc., Sunnyvale, Calif.) set with a 5 minute dark adapt. Results are shown in Table 6 and are expressed as fold increase of the IFN-αl—induced luciferase signal compared to a DMSO control.

TLR7 = molecular target: T2, TLR7 (Homo sapiens, UniProt Q9NYK1); assay: IFN-α1-luciferase reporter assay in genetically modified Namalwa cells, TLR7; assay type: cell-based; parameters: expressed in transfected cells; host or cells: Namalwa (ATCC CRL-1432); details: 10 μM IRM, 18 hours
T2 sequence (Q9NYK1 27-1049): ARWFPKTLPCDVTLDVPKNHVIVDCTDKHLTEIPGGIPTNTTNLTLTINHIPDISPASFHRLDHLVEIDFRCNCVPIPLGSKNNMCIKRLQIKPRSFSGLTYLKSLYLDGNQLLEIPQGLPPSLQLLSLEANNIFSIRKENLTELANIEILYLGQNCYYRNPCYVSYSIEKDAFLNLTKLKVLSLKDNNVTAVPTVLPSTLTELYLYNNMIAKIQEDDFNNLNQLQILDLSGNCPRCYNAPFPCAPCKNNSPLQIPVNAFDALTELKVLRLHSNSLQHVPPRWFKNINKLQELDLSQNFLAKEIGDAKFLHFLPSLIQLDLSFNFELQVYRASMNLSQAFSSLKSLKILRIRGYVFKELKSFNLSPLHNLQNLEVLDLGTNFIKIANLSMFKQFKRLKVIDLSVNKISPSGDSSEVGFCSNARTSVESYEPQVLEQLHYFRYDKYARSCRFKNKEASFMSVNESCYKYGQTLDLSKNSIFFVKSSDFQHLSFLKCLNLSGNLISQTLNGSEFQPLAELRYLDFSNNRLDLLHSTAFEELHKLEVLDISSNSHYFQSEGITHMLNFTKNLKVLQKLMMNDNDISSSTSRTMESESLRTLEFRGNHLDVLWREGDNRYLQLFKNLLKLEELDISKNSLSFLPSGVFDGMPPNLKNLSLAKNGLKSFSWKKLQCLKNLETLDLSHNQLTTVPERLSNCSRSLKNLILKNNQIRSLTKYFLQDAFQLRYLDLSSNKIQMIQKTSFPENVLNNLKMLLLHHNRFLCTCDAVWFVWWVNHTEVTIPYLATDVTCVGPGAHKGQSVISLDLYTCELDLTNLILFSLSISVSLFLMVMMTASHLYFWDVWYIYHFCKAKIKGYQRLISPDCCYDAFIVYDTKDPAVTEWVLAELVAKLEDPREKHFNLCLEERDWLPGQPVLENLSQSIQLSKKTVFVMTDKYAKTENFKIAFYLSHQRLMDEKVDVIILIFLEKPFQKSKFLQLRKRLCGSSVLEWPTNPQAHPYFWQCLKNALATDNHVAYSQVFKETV
Description: as §1, §2, §3, §4
Namalwa cells were grown by incubation in culture medium overnight. Cells were harvested by centrifugation in a tabletop centrifuge (1200 RPM for 5 minutes), and then resuspended in phosphate buffered sucrose to a concentration of 1.3×10^7 cells/mL. […]
as §5, §6, §7, §8

Compound	TLR6: fold increase of the IFN-α1-induced luciferase signal compared to a DMSO control (TLR6) [fold increase]	TLR7: fold increase of the IFN-α1-induced luciferase signal compared to a DMSO control (TLR7) [fold increase]
Nc1nc2ccccc2c2c1ncn2CCCCNC(=O)c1cnc2ccccc2c1 [IRM28, N^3-[4-(4-amino-1H-imidazo[4,5-c]quinolin-1-yl)butyl]-3-quinolinecarboxamide]	2.27	0.96
Nc1nc2ccccc2c2c1ncn2CCCCCCCCNC(=O)c1ccccc1 [IRM43, N-[8-(4-amino-1H-imidazo[4,5-c]quinolin-1-yl)octyl]benzamide]	1.07	2.17
CCCCc1nc2c(N)nc3cccnc3c2n1CCNC(=O)c1ccc(Br)s1 [IRM42, N^2-[2-(4-amino-2-butyl-1H-imidazo[4,5-c][1,5]naphthyridin-1-yl)ethyl]-5-bromo-2-thiophenecarboxamide]	0.98	3.54
CCCCc1nc2c(N)nc3cccnc3c2n1CCNC(=O)c1ccc(Br)o1 [IRM23, N^2-[2-(4-amino-2-butyl-1H-imidazo[4,5-c][1,5]naphthyridin-1-yl)ethyl]-5-bromo-2-furamide]	0.90	2.02
Nc1nc2ccccc2c2c1ncn2CCCCNC(=O)c1cccc2ccccc12 [IRM24, N^1-[4-(4-amino-1H-imidazo[4,5-c]quinolin-1-yl)butyl]-1-naphthamide]	0.00	3.38
CCC(COCCCc1ccccc1)n1cnc2c(N)nc3ccccc3c21 (stereo not shown) [IRM45, 1-{1-[(3-phenylpropoxy)methyl]propyl}-1H-imidazo[4,5-c]quinolin-4-amine]	5.56	1.87

Now from value to compound:

TLR6: fold increase of the IFN-α1-induced luciferase signal compared to a DMSO control (TLR6) [fold increase]	TLR7: fold increase of the IFN-α1-induced luciferase signal compared to a DMSO control (TLR7) [fold increase]	Compound
4.56	1.62	CCc1nc2c(N)nc3ccc(OCc4ccccc4)cc3c2n1CCCCNC(=O)c1ccccc1 [IRM48, N-{4-[4-amino-8-(benzyloxy)-2-ethyl-1H-imidazo[4,5-c]quinolin-1-yl]butyl}benzamide]
4.38	1.28	CCCCc1nc2c(N)nc3ccccc3c2n1CCCCNS(=O)(=O)c1ccc2ccccc2c1 [IRM30, N^2-[4-(4-amino-2-butyl-1H-imidazo[4,5-c]quinolin-1-yl)butyl]-2-naphthalenesulfonamide]
